According to patent publication US7259171B2, “Di and trifluoro-triazolo-pyridines anti-inflammatory compounds” (Pfizer Inc., priority 2002, dated 2007):

- melting point: 175.7 to 176.2 °C
SMILES: CC(C)c1nnc2ccc(-c3ocnc3-c3c(F)cccc3F)cn12 [Example 1, 6-[4-(2,6-Difluoro-phenyl)-oxazol-5-yl]-3-isopropyl-[1,2,4]triazolo[4,3-a]pyridine]
